# “Also recorded” adds a separate entry of the source. Where two headings read alike, the source gives them in different places. Ends that are not written are not given here.
# What was measured:
# SARS-CoV-2 S-RBD = SARS-CoV-2 S-RBD (Severe acute respiratory syndrome coronavirus 2, UniProt P0DTC2); assay: biochemical; assay type: binding
# [1] = target: T1, NRP1-BD (the b1 domain of NRP1) (Homo sapiens, UniProt O14786); assay: Microscale thermophoresis (MST) binding to NRP1-BD; conditions: mean ± SD (n = 3)
# T1 construct: NRP1-BD (the b1 domain of NRP1); purchased Abcam (Cambridge, MA, USA)
# T1 sequence (O14786 275-424 limits assumed): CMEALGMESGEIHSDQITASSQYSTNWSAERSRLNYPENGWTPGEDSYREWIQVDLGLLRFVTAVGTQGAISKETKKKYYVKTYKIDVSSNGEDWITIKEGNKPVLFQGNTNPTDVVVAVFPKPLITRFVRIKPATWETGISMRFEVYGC
# SARS-CoV-2 pseudovirus = conditions: for inhibition rate on pseudotyped SARS-CoV-2 infection: 3.2 µM
# [2] = read-out: EC50 against pseudotyped SARS-CoV-2 infection
Compound,Kd (SARS-CoV-2 S-RBD) [nM],"EC50 (SARS-CoV-2 pseudovirus; pseudovirus, 48 h) [nM]",further results
"C[C@@]1(C(=O)O)CC[C@]2(C)CC[C@]3(C)C4=CC(=O)c5c(cc(O)c(O)c5C=O)[C@]4(C)CC[C@@]3(C)[C@@H]2C1 [T-96, demethylzeylasteral]",–,–,Kd (SARS-CoV-2 S-RBD; read-out: S-RBD Kd): 998.6 ± 8.4 nM; NRP1-BD Kd [1]: no binding; also recorded: without binding; inhibition rate on pseudotyped SARS-CoV-2 infection (SARS-CoV-2 pseudovirus): about 40%; EC50 (SARS-CoV-2 pseudovirus; [2]): 5420 nM
Ac-QRNIYLDRHNHEAEDLKYQTALASFRPAKPAR [RN-3],95.3 ± 2.9,2870 ± 180,–
NC(N)=NCCC[C@H](NC(=O)c1sccc1NS(=O)(=O)c1cccc2nsnc12)C(=O)O [EG00229],–,–,S-RBD Kd (SARS-CoV-2 S-RBD): no binding; also recorded: without binding; Kd ([1]; value in μM): 4.9 ± 0.7 µM; inhibition rate on pseudotyped SARS-CoV-2 infection (SARS-CoV-2 pseudovirus): 15%; EC50 (SARS-CoV-2 pseudovirus; [2]): > 20000 nM
Ac-EKSTLKDRFNHEAQDLKYQDSLASYRGKRPPR [RN-2],65.3 ± 2.2,2370 ± 420,–
Ac-QNKVYIDKYNHEAQDLFYQSALKAHRGNRRAR [RN-1],19.9 ± 1.4,1980 ± 370,–
Ac-EARTFLDKYNHEAEDLYYQSSLASWGSPRRAR [RN-4],7.4 ± 0.5,390 ± 90,–
Ac-ETQVLLDKLNHEAEDLKYQSALASHRVRRPPR [RN-5],207 ± 4.5,3720 ± 890,–

# From PMC10193894 (Journal of Enzyme Inhibition and Medicinal Chemistry, 2023)
